Measurements: patent US10669267B2, “Substituted N-[2-(4-phenoxypiperidin-1-yl)-2-(1,3-thiazol-5-yl)ethyl]benzamide and N-[2-(4-benzyloxypiperidin-1-yl)-2-(1,3-thiazol-5-yl)ethyl]benzamide derivatives P2X7 receptor antagonists” (Axxam S.P.A., priority 2016, dated 2020)
Like-named read-outs stand apart in the source and are kept apart here.

What was measured:
rat P2X7R = rat P2X7R (Rattus norvegicus (Rat), UniProt Q64663); assay: rat P2X7 Ca2+ influx, Screen Quest Fluo-8 No Wash Calcium Assay Kit (FLIPR TETRA); format: cell-based; details: read-out: rP2X7 (IC50; nM)
Experimental: Ca^2+ influx was measured in HEK-293 cells stably transfected with the receptor using Screen Quest™ Fluo-8 No Wash Calcium Assay Kit (AAt Bioquest®). Briefly, once inside the cells, the lipophilic blocking groups of Fluo-8 are cleaved by non-specific cell esterases, resulting in a negatively-charged fluorescent-dye that stays inside cells. Its fluorescence increases upon binding to calcium. When HEK-293/P2X7 cells were stimulated with BzATP, Ca^2+ entered the cells and the fluorescence of Fluo-8 NW increaseed.
To routinely test the compounds, HEK-293 cells stably transfected with rat P2X7R were seeded overnight in growth medium at 10000, 15000 or 20000 cells/well in 384-well plate, according to the level of response after thawing. 24 hours later, the medium was removed and the cells were pre-loaded at RT for 1 hour with 20 μL/w of Fluo-8 NW prepared in Tyrode 0.3 mM Ca^2+/Mg^2+-free.
Compounds were tested at […] according to the following method: • first injection at […] of 10 μL of 3× test compound (in Tyrode's buffer 0.3 mM Ca^2+/Mg^2+-free+DMSO 0.5% final concentration) • 5′ incubation • second injection at […] of 15 µL of 3× BzATP at ˜ECK) (in Tyrode's buffer 0.3 mM Ca^2+/Mg^2+-free+BSA 0.0003% final concentration) • Fluorescence recording for 3′
Between one plate and the following, tips were extensively washed with water, then with 100% DMSO and finally with water to avoid carry-over inside the tips.
The effect of the test compounds was measured as percent inhibition vs a reference antagonist and IC50 values were calculated accordingly.

human P2X7 channel = human P2X7 channel (Homo sapiens (Human), UniProt Q99572); assay: human P2X7 channel assay by automated patch-clamp (QPatch16X), BzATP-evoked current; format: cell-based; details: HEK-293 cells expressing P2X7, whole-cell voltage clamp, 100 microM BzATP, holding -80 mV; read-out: hP2X7 (IC50; nM)
Experimental: In order to directly monitor the block of P2X7 channel, an electrophysiological assay was developed and implemented on the QPatch16X automated electrophysiology instrument.
HEK-293 cells expressing the P2X7 channels were cultured in modified EMEM.
72 hours before experiment, 5 million cells were seeded onto T225 flasks. Just before the experiment cells were washed twice, detached from the flask with trypsin-EDTA, re-suspended in the suspension solution and placed on the QPatch 16x.
The compounds (20 mM in a 100% DMSO) stored at −20° C. were prepared the day of the experiment (a first dilution 1:20 in 100% DMSO to prepare a 1 mM stock solution, then a 1 microM solution in external solution+a serial dilution 1:10).
The standard whole-cell voltage clamp experiments were performed at room temperature. For these experiments the multihole technology was used and the data were sampled at 2 KHz.
After establishment of the seal and the passage in the whole cell configuration, the cells were held at −80 mV. The P2XR7 current was evoked by applying 100 microM of BzATP alone (4 times) and then in the presence increasing concentrations of the compound under investigation (1, 10, 100 and 1000 nM).
The pre-incubation periods 5 to 8 contain increasing concentrations of the compound of interest (1, 10, 100 and 1000 nM), as illustrated in FIGURE.
The maximal inward current evoked by BzATP in absence or presence of increasing concentrations of the compounds under investigation was measured and normalized.
Y: normalized response, 100% down to 0%, decreasing as X increases.
LogIC50: same log units as X
HillSlope: slope factor or HS, unitless

[1] = Table 4, HEK-293 cells stably transfected with rat P2X7R, BzATP stimulation

Sequence of human P2X7 channel (Q99572 whole entry): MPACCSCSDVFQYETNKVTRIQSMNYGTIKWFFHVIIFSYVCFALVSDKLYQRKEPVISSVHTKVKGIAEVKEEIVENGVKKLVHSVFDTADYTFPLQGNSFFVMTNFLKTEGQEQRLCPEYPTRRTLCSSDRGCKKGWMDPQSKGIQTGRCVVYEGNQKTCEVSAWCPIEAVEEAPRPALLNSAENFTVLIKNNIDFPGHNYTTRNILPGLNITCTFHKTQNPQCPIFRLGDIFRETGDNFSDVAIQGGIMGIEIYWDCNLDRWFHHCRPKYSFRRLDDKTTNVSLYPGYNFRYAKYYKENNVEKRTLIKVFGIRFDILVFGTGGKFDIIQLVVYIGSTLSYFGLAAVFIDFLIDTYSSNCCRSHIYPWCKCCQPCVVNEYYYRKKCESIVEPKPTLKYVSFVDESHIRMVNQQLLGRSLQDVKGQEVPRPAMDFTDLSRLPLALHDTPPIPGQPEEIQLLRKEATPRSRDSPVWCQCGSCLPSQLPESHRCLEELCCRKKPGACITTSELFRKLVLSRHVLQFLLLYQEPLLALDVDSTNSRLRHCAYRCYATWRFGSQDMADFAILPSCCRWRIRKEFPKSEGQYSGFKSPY
Sequence of rat P2X7R (Q64663 whole entry): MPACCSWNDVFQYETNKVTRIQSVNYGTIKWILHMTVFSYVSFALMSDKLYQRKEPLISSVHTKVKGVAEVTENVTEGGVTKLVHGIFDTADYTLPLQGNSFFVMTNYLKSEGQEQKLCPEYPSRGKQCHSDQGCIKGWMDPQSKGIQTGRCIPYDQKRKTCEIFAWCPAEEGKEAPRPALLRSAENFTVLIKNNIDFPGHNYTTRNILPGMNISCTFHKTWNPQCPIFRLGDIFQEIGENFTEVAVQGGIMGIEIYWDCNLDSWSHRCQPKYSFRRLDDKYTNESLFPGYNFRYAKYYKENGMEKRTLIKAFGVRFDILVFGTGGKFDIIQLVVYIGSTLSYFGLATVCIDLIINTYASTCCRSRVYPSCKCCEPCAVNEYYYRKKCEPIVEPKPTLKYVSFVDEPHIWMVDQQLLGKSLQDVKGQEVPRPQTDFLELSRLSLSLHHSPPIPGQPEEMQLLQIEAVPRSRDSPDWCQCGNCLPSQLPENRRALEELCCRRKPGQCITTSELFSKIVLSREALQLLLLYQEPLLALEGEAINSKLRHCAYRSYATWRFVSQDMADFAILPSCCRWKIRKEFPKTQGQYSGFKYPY

SMILES	IC50 (rat P2X7R; [1]) [nM]	IC50 (human P2X7 channel) [nM]	IC50 (rat P2X7R; Table 5, comparison with Compound 59 of WO2015118019) [nM]
Cc1ncsc1C(CNC(=O)c1cccc2ncccc12)N1CCC(OCc2ccccc2F)CC1 (stereo not shown) [Compound 16, N-(2-{4-[(2-fluorophenyl)methoxy]piperidin-1-yl}-2-(4-methyl-1,3-thiazol-5-yl)ethyl)quinoline-5-carboxamide]	762		
Cc1ncsc1C(CNC(=O)c1cccc2ncccc12)N1CCC(OCc2ccc(F)c(F)c2)CC1 (stereo not shown) [Compound 18, N-(2-{4-[(3,4-difluorophenyl)methoxy]piperidin-1-yl}-2-(4-methyl-1,3-thiazol-5-yl)ethyl)quinoline-5-carboxamide]	374	36.9	
O=C(NCC(c1scnc1C(F)F)N1CCC(Oc2ccccc2F)CC1)c1cccc2ncccc12 (stereo not shown) [Compound 37, N-{2-[4-(difluoromethyl)-1,3-thiazol-5-yl]-2-[4-(2-fluorophenoxy)piperidin-1-yl]ethyl}quinoline-5-carboxamide]	133	43.2	133
Cc1ncsc1C(CNC(=O)c1cccc2ncccc12)N1CCC(Oc2cc(F)cc(F)c2)CC1 (stereo not shown) [Compound 23, N-{2-[4-(3,5-difluorophenoxy)piperidin-1-yl]-2-(4-methyl-1,3-thiazol-5-yl)ethyl}quinoline-5-carboxamide]	631		
Cc1ncsc1C(CNC(=O)c1c(F)cccc1Cl)N1CCC(OCc2cc(F)cc(F)c2)CC1 (stereo not shown) [Compound 5, 2-chloro-N-(2-{4-[(3,5-difluorophenyl)methoxy]piperidin-1-yl}-2-(4-methyl-1,3-thiazol-5-yl)ethyl)-6-fluorobenzamide]	506	35.1	
O=C(NCC(c1scnc1C(F)F)N1CCC(Oc2cc(F)cc(F)c2)CC1)c1cccc2ncccc12 (stereo not shown) [Compound 38, N-{2-[4-(difluoromethyl)-1,3-thiazol-5-yl]-2-[4-(3,5-difluorophenoxy)piperidin-1-yl]ethyl}quinoline-5-carboxamide]	216		
Cc1ncsc1C(CNC(=O)c1c(F)cccc1Cl)N1CCC(OCc2ccc(Cl)cc2)CC1 (stereo not shown) [Compound 2, 2-chloro-N-(2-{4-[(4-chlorophenyl)methoxy]piperidin-1-yl}-2-(4-methyl-1,3-thiazol-5-yl)ethyl)-6-fluorobenzamide]	971		
O=C(NCC(c1scnc1C(F)F)N1CCC(Oc2ccccc2F)CC1)c1c(F)cccc1Cl (stereo not shown) [Compound 30, 2-chloro-N-{2-[4-(difluoromethyl)-1,3-thiazol-5-yl]-2-[4-(2-fluorophenoxy)piperidin-1-yl]ethyl}-6-fluorobenzamide]	329	40.7	
Cc1ncsc1C(CNC(=O)c1c(F)cccc1Cl)N1CCC(Oc2ccc(F)c(F)c2)CC1 (stereo not shown) [Compound 12, 2-chloro-N-{2-[4-(3,4-difluorophenoxy)piperidin-1-yl]-2-(4-methyl-1,3-thiazol-5-yl)ethyl}-6-fluorobenzamide]	380	25.8	
O=C(NCC(c1scnc1C(F)F)N1CCC(Oc2cc(F)cc(F)c2)CC1)c1c(F)cccc1Cl (stereo not shown) [Compound 31, 2-chloro-N-{2-[4-(difluoromethyl)-1,3-thiazol-5-yl]-2-[4-(3,5-difluorophenoxy)piperidin-1-yl]ethyl}-6-fluorobenzamide]	458		
O=C(NCC(c1scnc1C(F)F)N1CCC(Oc2ccc(Cl)cc2)CC1)c1cccc2ncccc12 (stereo not shown) [Compound 35, N-{2-[4-(4-chlorophenoxy)piperidin-1-yl]-2-[4-(difluoromethyl)-1,3-thiazol-5-yl]ethyl}quinoline-5-carboxamide]	323		
Cc1ncsc1C(CNC(=O)c1c(F)cccc1Cl)N1CCC(OCc2ccc(F)c(F)c2)CC1 (stereo not shown) [Compound 6, 2-chloro-N-(2-{4-[(3,4-difluorophenyl)methoxy]piperidin-1-yl}-2-(4-methyl-1,3-thiazol-5-yl)ethyl)-6-fluorobenzamide]	1160		
Cc1ncsc1C(CNC(=O)c1c(F)cccc1Cl)N1CCC(OCc2ccccc2F)CC1 (stereo not shown) [Compound 4, 2-chloro-6-fluoro-N-(2-{4-[(2-fluorophenyl)methoxy]piperidin-1-yl}-2-(4-methyl-1,3-thiazol-5-yl)ethyl)benzamide]	953	28.1	
O=C(NCC(c1scnc1C(F)F)N1CCC(OCc2ccc(F)c(F)c2)CC1)c1c(F)cccc1Cl (stereo not shown) [Compound 27, 2-chloro-N-{2[4-(difluoromethyl)-1,3-thiazol-5-yl]-2-{4-[(3,4-difluorophenyl)methoxy]piperidin-1-yl}ethyl}-6-fluorobenzamide]	1210		
O=C(NCC(c1scnc1C(F)F)N1CCC(Oc2cccc(F)c2)CC1)c1c(F)cccc1Cl (stereo not shown) [Compound 29, 2-chloro-N-{2-[4-(difluoromethyl)-1,3-thiazol-5-yl]-2-[4-(3-fluorophenoxy)piperidin-1-yl]ethyl}-6-fluorobenzamide]	441	28.9	
O=C(NCC(c1scnc1C(F)F)N1CCC(Oc2cccc(F)c2)CC1)c1cccc2ncccc12 (stereo not shown) [Compound 36, N-{2-[4-(difluoromethyl)-1,3-thiazol-5-yl]-2-[4-(3-fluorophenoxy)piperidin-1-yl]ethyl}quinoline-5-carboxamide]	295		
O=C(NCC(c1scnc1C(F)F)N1CCC(OCc2cc(F)cc(F)c2)CC1)c1c(F)cccc1Cl (stereo not shown) [Compound 26, 2-chloro-N-{2-[4-(difluoromethyl)-1,3-thiazol-5-yl]-2-{4-[(3,5-difluorophenyl)methoxy]piperidin-1-yl}ethyl}-6-fluorobenzamide]	578		
O=C(NCC(c1scnc1C(F)F)N1CCC(OCc2ccccc2F)CC1)c1cccc2ncccc12 (stereo not shown) [Compound 32, N-{2-[4-(difluoromethyl)-1,3-thiazol-5-yl]-2-{4-[(2-fluorophenyl)methoxy]piperidin-1-yl}ethyl}quinoline-5-carboxamide]	251		
Cc1ncsc1C(CNC(=O)c1cccc2ncccc12)N1CCC(OCc2ccc(Cl)cc2)CC1 (stereo not shown) [Compound 14, N-(2-{4-[(4-chlorophenyl)methoxy]piperidin-1-yl}-2-(4-methyl-1,3-thiazol-5-yl)ethyl)quinoline-5-carboxamide]	1120		
Cc1ncsc1C(CNC(=O)c1cccc2ncccc12)N1CCC(Oc2ccc(Cl)cc2)CC1 (stereo not shown) [Compound 20, N-{2-[4-(4-chlorophenoxy)piperidin-1-yl]-2-(4-methyl-1,3-thiazol-5-yl)ethyl}quinoline-5-carboxamide]	808		
O=C(NCC(c1scnc1C(F)F)N1CCC(Oc2ccc(Cl)cc2)CC1)c1c(F)cccc1Cl (stereo not shown) [Compound 28, 2-chloro-N-{2-[4-(4-chlorophenoxy)piperidin-1-yl]-2-[4-(difluoromethyl)-1,3-thiazol-5-yl]ethyl}-6-fluorobenzamide]	2020		
O=C(NCC(c1scnc1C(F)F)N1CCC(OCc2ccccc2F)CC1)c1c(F)cccc1Cl (stereo not shown) [Compound 25, 2-chloro-N-{2-[4-(difluoromethyl)-1,3-thiazol-5-yl]-2-{4-[(2-fluorophenyl)methoxy]piperidin-1-yl}ethyl}-6-fluorobenzamide]	252		
Cc1ncsc1C(CNC(=O)c1c(F)cccc1Cl)N1CCC(Oc2ccc(Cl)cc2)CC1 (stereo not shown) [Compound 8, 2-chloro-N-{2-[4-(4-chlorophenoxy)piperidin-1-yl]-2-(4-methyl-1,3-thiazol-5-yl)ethyl}-6-fluorobenzamide]	1310		
